Measurements reported in ChEMBL document CHEMBL3046439, “Spectroscopic characterization of novel d-amino acid-Schiff bases and their Cr(III) and Ni(II) complexes as antimicrobial agents” (2013).

How the values were obtained:
[1] = system: Salmonella typhi; assay: Antimicrobial activity against Salmonella enterica subsp. enterica serovar Typhi H NCTC 901.8394 assessed as diameter of growth inhibition zone at 25 ug after 24 hr by well-diffusion method; type: functional; details: H NCTC 901.8394, 24 h, read-out: DIZ
[2] = system: Escherichia coli; assay: microbe, parasite or virus in culture; details: ATCC 1280, 24 h, read-out: DIZ
[3] = system: Staphylococcus aureus; assay: Antimicrobial activity against Staphylococcus aureus ATCC 25923 assessed as diameter of growth inhibition zone at 25 ug after 24 hr by well-diffusion method; type: functional; details: ATCC 25923, 24 h, read-out: DIZ
[4] = system: Listeria monocytogenes; assay: Antimicrobial activity against Listeria monocytogenes ATCC 19115 assessed as diameter of growth inhibition zone at 25 ug after 24 hr by well-diffusion method; type: functional; details: ATCC 19115, 24 h, read-out: DIZ
[5] = system: Micrococcus luteus; assay: Antimicrobial activity against Micrococcus luteus ATCC 9341 assessed as diameter of growth inhibition zone at 0.25 ug/ml after 24 hr by well-diffusion method; type: functional; details: ATCC 9341, 24 h, read-out: DIZ
[6] = system: Staphylococcus epidermidis; assay: Antimicrobial activity against Staphylococcus epidermidis assessed as diameter of growth inhibition zone at 0.25 ug/ml after 24 hr by well diffusion method; type: functional; details: read-out: DIZ
[7] = system: Staphylococcus aureus; assay: Antimicrobial activity against Staphylococcus aureus ATCC 25923 assessed as diameter of growth inhibition zone at 0.25 ug/ml after 24 hr by well-diffusion method; type: functional; details: ATCC 25923, 24 h, read-out: DIZ
[8] = system: Escherichia coli; assay: Antimicrobial activity against Escherichia coli ATCC 1280 assessed as diameter of growth inhibition zone at 0.25 ug/ml after 24 hr by well-diffusion method; type: functional; details: ATCC 1280, 24 h, read-out: DIZ
[9] = system: Candida albicans; assay: Antimicrobial activity against Candida albicans Y-1200-NIH assessed as diameter of growth inhibition zone at 0.25 ug/ml after 24 hr by well-diffusion method; type: functional; details: read-out: DIZ
[10] = system: Listeria monocytogenes; assay: Antimicrobial activity against Listeria monocytogenes ATCC 19115 assessed as diameter of growth inhibition zone at 0.25 ug/ml after 24 hr by well-diffusion method; type: functional; details: ATCC 19115, 24 h, read-out: DIZ
[11] = system: Brucella abortus; assay: Antimicrobial activity against Brucella abortus (A.99, UK-1995) RSKK03026 assessed as diameter of growth inhibition zone at 0.25 ug/ml after 24 hr by well-diffusion method; type: functional; details: (A.99, UK-1995) RSKK03026, 24 h, read-out: DIZ
[12] = system: Shigella dysenteriae; assay: Antimicrobial activity against Shigella dysenteriae type 10 NCTC 9351 assessed as diameter of growth inhibition zone at 0.25 ug/ml after 24 hr by well diffusion method; type: functional; details: type 10 NCTC 9351, 24 h, read-out: DIZ
[13] = system: Salmonella typhi; assay: Antimicrobial activity against Salmonella enterica subsp. enterica serovar Typhi H NCTC 901.8394 assessed as diameter of growth inhibition zone at 0.25 ug/ml after 24 hr by well-diffusion method; type: functional; details: H NCTC 901.8394, 24 h, read-out: DIZ
[14] = system: Brucella abortus; assay: Antimicrobial activity against Brucella abortus (A.99, UK-1995) RSKK03026 assessed as diameter of growth inhibition zone at 30 ug after 24 hr by well-diffusion method; type: functional; details: (A.99, UK-1995) RSKK03026, 24 h, read-out: DIZ
[15] = system: Listeria monocytogenes; assay: Antimicrobial activity against Listeria monocytogenes ATCC 19115 assessed as diameter of growth inhibition zone at 10 ug after 24 hr by well-diffusion method; type: functional; details: ATCC 19115, 24 h, read-out: DIZ
[16] = system: Salmonella typhi; assay: Antimicrobial activity against Salmonella enterica subsp. enterica serovar Typhi H NCTC 901.8394 assessed as diameter of growth inhibition zone at 10 ug after 24 hr by well-diffusion method; type: functional; details: H NCTC 901.8394, 24 h, read-out: DIZ
[17] = system: Escherichia coli; assay: Antimicrobial activity against Escherichia coli ATCC 1280 assessed as diameter of growth inhibition zone at 10 ug after 24 hr by well-diffusion method; type: functional; details: ATCC 1280, 24 h, read-out: DIZ
[18] = system: Staphylococcus aureus; assay: Antimicrobial activity against Staphylococcus aureus ATCC 25923 assessed as diameter of growth inhibition zone at 10 ug after 24 hr by well-diffusion method; type: functional; details: ATCC 25923, 24 h, read-out: DIZ
[19] = system: Listeria monocytogenes; assay: Antimicrobial activity against Listeria monocytogenes ATCC 19115 assessed as diameter of growth inhibition zone at 30 ug after 24 hr by well-diffusion method; type: functional; details: ATCC 19115, 24 h, read-out: DIZ
[20] = system: Staphylococcus aureus; assay: Antimicrobial activity against Staphylococcus aureus ATCC 25923 assessed as diameter of growth inhibition zone at 30 ug after 24 hr by well-diffusion method; type: functional; details: ATCC 25923, 24 h, read-out: DIZ
[21] = system: Salmonella typhi; assay: Antimicrobial activity against Salmonella enterica subsp. enterica serovar Typhi H NCTC 901.8394 assessed as diameter of growth inhibition zone at 30 ug after 24 hr by well-diffusion method; type: functional; details: H NCTC 901.8394, 24 h, read-out: DIZ
[22] = system: Escherichia coli; assay: Antimicrobial activity against Escherichia coli ATCC 1280 assessed as diameter of growth inhibition zone at 30 ug after 24 hr by well-diffusion method; type: functional; details: ATCC 1280, 24 h, read-out: DIZ

What does the source list for `Cc1cc(NS(=O)(=O)c2ccc(N)cc2)no1` [SULFAMETHOXAZOLE]?
zone of inhibition at 25 µg/disc [1]: 17 mm; zone of inhibition at 25 µg/disc [2]: 18 mm; zone of inhibition at 25 µg/disc [3]: 24 mm; zone of inhibition at 25 µg/disc [4]: 11 mm

How did the zone of inhibition at 0.25 µg/mL [5] turn out when `C[C@@H](/N=C/c1cc(F)ccc1O)C(=O)O` was run?
The zone of inhibition at 0.25 µg/mL was 14 mm.

And the zone of inhibition at 0.25 µg/mL [6]?
Its zone of inhibition at 0.25 µg/mL is 5 mm.

What about the zone of inhibition at 0.25 µg/mL [7] of the same compound?
Its zone of inhibition at 0.25 µg/mL is 6 mm.

And the zone of inhibition at 0.25 µg/mL [8]?
The zone of inhibition at 0.25 µg/mL was 10 mm.

What about the zone of inhibition at 0.25 µg/mL [9] of the same compound?
Its zone of inhibition at 0.25 µg/mL is 12.5 mm.

What about the zone of inhibition at 0.25 µg/mL [10] of the same compound?
The zone of inhibition at 0.25 µg/mL was 6.5 mm.

What about the zone of inhibition at 0.25 µg/mL [11] of the same compound?
Its zone of inhibition at 0.25 µg/mL is 10.5 mm.

For `O=C(O)C/N=C/c1cc(F)cc(Cl)c1O`, which zone of inhibition at 0.25 µg/mL [12] is on record?
Its zone of inhibition at 0.25 µg/mL is 18 mm.

And the zone of inhibition at 0.25 µg/mL [5]?
Its zone of inhibition at 0.25 µg/mL is 26.5 mm.

What about the zone of inhibition at 0.25 µg/mL [6] of the same compound?
Its zone of inhibition at 0.25 µg/mL is 12.5 mm.

And the zone of inhibition at 0.25 µg/mL [7]?
Its zone of inhibition at 0.25 µg/mL is 18.5 mm.

And the zone of inhibition at 0.25 µg/mL [8]?
Its zone of inhibition at 0.25 µg/mL is 16 mm.

What about the zone of inhibition at 0.25 µg/mL [9] of the same compound?
Its zone of inhibition at 0.25 µg/mL is 15.5 mm.

What about the zone of inhibition at 0.25 µg/mL [10] of the same compound?
The zone of inhibition at 0.25 µg/mL was 10 mm.

And the zone of inhibition at 0.25 µg/mL [11]?
Its zone of inhibition at 0.25 µg/mL is 15 mm.

What about the zone of inhibition at 0.25 µg/mL [13] of the same compound?
Its zone of inhibition at 0.25 µg/mL is 18 mm.

For `CC1(C)[C@H](C(=O)O)N2C(=O)C[C@H]2S1(=O)=O` [SULBACTAM], which zone of inhibition at 30 µg/disc [14] is on record?
The zone of inhibition at 30 µg/disc was 12 mm.

Which results are given for `CC1(C)S[C@@H]2[C@H](NC(=O)[C@H](N)c3ccccc3)C(=O)N2[C@H]1C(=O)O` [AMPICILLIN]?
zone of inhibition at 10 µg/disc [15]: 16 mm; zone of inhibition at 10 µg/disc [16]: 11 mm; zone of inhibition at 10 µg/disc [17]: 10 mm; zone of inhibition at 10 µg/disc [18]: 30 mm

`C[C@@H](/N=C/c1cc(F)cc(Cl)c1O)C(=O)O` was tested. Which zone of inhibition at 0.25 µg/mL [12] did it give?
The zone of inhibition at 0.25 µg/mL was 11.5 mm.

And the zone of inhibition at 0.25 µg/mL [5]?
The zone of inhibition at 0.25 µg/mL was 23.5 mm.

What about the zone of inhibition at 0.25 µg/mL [6] of the same compound?
The zone of inhibition at 0.25 µg/mL was 12 mm.

What about the zone of inhibition at 0.25 µg/mL [7] of the same compound?
Its zone of inhibition at 0.25 µg/mL is 16 mm.

What about the zone of inhibition at 0.25 µg/mL [8] of the same compound?
Its zone of inhibition at 0.25 µg/mL is 15.5 mm.

What about the zone of inhibition at 0.25 µg/mL [9] of the same compound?
The zone of inhibition at 0.25 µg/mL was 15 mm.

What about the zone of inhibition at 0.25 µg/mL [10] of the same compound?
The zone of inhibition at 0.25 µg/mL was 12.5 mm.

And the zone of inhibition at 0.25 µg/mL [11]?
The zone of inhibition at 0.25 µg/mL was 17.5 mm.

What about the zone of inhibition at 0.25 µg/mL [13] of the same compound?
Its zone of inhibition at 0.25 µg/mL is 11.5 mm.

With `NC[C@H]1O[C@H](O[C@H]2[C@H](O)[C@@H](O[C@H]3O[C@H](CO)[C@@H](O)[C@H](N)[C@H]3O)[C@H](N)C[C@@H]2N)[C@H](O)[C@@H](O)[C@@H]1O` [KANAMYCIN] as the compound, how does the zone of inhibition at 30 µg/disc [19] read?
The zone of inhibition at 30 µg/disc was 15 mm.

What about the zone of inhibition at 30 µg/disc [20] of the same compound?
The zone of inhibition at 30 µg/disc was 25 mm.

What about the zone of inhibition at 30 µg/disc [21] of the same compound?
The zone of inhibition at 30 µg/disc was 20 mm.

And the zone of inhibition at 30 µg/disc [22]?
The zone of inhibition at 30 µg/disc was 25 mm.

With `CC1(C)S[C@@H]2[C@H](NC(=O)[C@H](N)c3ccc(O)cc3)C(=O)N2[C@H]1C(=O)O` [AMOXICILLIN] as the compound, how does the zone of inhibition at 30 µg/disc [19] read?
Its zone of inhibition at 30 µg/disc is 22 mm.

And the zone of inhibition at 30 µg/disc [20]?
Its zone of inhibition at 30 µg/disc is 30 mm.

And the zone of inhibition at 30 µg/disc [21]?
Its zone of inhibition at 30 µg/disc is 19 mm.

And the zone of inhibition at 30 µg/disc [22]?
Its zone of inhibition at 30 µg/disc is 14 mm.

Which zone of inhibition at 0.25 µg/mL [12] does the source give for `O=C(O)C/N=C/c1cc(F)ccc1O` here?
Its zone of inhibition at 0.25 µg/mL is 11 mm.

What about the zone of inhibition at 0.25 µg/mL [5] of the same compound?
The zone of inhibition at 0.25 µg/mL was 15 mm.

What about the zone of inhibition at 0.25 µg/mL [6] of the same compound?
Its zone of inhibition at 0.25 µg/mL is 6 mm.

And the zone of inhibition at 0.25 µg/mL [7]?
The zone of inhibition at 0.25 µg/mL was 7 mm.

And the zone of inhibition at 0.25 µg/mL [8]?
The zone of inhibition at 0.25 µg/mL was 13 mm.

And the zone of inhibition at 0.25 µg/mL [9]?
Its zone of inhibition at 0.25 µg/mL is 10 mm.

What about the zone of inhibition at 0.25 µg/mL [10] of the same compound?
Its zone of inhibition at 0.25 µg/mL is 10 mm.

And the zone of inhibition at 0.25 µg/mL [11]?
The zone of inhibition at 0.25 µg/mL was 11.5 mm.

What about the zone of inhibition at 0.25 µg/mL [13] of the same compound?
Its zone of inhibition at 0.25 µg/mL is 15 mm.
